Measured values from the Kinase Knowledgebase extract (Sharma et al. 2016).
Values joined by “and” are separate entries in the source; they are usually repeats but may differ in a detail not shown here. Identical values can stand only once.

What was measured:
PIK3CA (human) = PIK3CA (human) (UniProt P42336); test: Enzyme Assay
PIK3CB (Human) = PIK3CB (Human) (UniProt P42338); test: Enzyme Assay
PIK3CD (Human) [1] = target: PIK3CD (Human) (UniProt O00329); test: Enzyme Assay
PIK3CG (human) = PIK3CG (human) (UniProt P48736); test: Enzyme Assay
Chain of PIK3CG (human) (P48736 whole entry, looked up): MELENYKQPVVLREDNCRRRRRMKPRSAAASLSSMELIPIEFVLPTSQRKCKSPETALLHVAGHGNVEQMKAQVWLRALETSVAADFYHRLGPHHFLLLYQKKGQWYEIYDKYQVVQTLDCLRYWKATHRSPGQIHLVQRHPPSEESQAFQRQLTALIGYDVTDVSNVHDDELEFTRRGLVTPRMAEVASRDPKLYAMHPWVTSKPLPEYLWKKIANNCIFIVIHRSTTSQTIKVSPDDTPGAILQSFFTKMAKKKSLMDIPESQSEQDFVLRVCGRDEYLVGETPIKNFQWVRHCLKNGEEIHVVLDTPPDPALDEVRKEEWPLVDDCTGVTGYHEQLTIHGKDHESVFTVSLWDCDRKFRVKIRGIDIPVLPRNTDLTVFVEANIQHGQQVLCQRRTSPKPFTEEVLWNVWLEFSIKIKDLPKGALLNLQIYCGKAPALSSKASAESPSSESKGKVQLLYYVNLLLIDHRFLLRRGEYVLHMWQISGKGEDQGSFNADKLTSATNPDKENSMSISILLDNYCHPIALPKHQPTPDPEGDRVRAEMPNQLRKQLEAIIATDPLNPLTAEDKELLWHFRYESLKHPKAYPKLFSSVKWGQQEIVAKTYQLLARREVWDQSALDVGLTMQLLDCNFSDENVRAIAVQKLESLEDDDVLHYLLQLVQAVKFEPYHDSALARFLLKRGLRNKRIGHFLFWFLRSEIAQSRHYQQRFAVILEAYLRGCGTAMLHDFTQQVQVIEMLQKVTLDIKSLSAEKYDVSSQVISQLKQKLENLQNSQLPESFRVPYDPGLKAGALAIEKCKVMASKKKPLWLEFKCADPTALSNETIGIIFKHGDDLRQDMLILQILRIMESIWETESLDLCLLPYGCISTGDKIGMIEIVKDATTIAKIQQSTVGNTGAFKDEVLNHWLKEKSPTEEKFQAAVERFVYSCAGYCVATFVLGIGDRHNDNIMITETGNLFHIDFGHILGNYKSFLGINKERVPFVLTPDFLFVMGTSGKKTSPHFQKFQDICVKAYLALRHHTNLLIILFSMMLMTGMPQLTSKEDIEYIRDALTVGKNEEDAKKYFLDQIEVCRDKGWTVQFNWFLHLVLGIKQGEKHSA

PIK3CD (Human) [2] = target: PIK3CD (Human) (UniProt O00329); test: Cell-Based Assay; details: raji

Chain of PIK3CB (Human) (P42338 whole entry, looked up): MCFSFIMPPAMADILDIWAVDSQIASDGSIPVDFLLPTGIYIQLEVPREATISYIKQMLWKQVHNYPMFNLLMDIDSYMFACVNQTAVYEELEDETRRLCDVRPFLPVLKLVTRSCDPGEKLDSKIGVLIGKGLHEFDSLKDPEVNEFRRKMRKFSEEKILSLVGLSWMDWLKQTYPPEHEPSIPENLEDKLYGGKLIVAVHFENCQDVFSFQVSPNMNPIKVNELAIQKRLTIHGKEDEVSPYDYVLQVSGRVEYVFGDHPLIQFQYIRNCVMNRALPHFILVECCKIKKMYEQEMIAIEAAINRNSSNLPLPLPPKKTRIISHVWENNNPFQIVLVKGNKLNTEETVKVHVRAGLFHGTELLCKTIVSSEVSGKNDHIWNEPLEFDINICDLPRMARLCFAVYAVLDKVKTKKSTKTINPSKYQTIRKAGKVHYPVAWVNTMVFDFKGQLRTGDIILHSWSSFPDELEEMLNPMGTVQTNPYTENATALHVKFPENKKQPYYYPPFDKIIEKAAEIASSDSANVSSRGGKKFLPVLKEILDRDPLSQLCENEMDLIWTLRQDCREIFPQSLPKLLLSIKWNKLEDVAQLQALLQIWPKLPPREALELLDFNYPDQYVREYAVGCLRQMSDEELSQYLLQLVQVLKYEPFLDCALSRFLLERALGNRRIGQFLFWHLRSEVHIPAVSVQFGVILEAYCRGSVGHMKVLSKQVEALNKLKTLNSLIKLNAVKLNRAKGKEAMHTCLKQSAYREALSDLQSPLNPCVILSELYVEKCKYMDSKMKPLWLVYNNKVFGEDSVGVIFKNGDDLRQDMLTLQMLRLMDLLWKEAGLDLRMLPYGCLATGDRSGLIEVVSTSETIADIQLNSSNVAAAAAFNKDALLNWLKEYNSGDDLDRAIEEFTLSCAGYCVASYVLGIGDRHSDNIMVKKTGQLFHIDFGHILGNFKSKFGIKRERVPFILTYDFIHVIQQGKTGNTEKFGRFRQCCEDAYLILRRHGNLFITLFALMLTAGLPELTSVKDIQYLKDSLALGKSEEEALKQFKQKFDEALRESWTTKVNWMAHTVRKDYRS
Chain of PIK3CA (human) (P42336 whole entry, looked up): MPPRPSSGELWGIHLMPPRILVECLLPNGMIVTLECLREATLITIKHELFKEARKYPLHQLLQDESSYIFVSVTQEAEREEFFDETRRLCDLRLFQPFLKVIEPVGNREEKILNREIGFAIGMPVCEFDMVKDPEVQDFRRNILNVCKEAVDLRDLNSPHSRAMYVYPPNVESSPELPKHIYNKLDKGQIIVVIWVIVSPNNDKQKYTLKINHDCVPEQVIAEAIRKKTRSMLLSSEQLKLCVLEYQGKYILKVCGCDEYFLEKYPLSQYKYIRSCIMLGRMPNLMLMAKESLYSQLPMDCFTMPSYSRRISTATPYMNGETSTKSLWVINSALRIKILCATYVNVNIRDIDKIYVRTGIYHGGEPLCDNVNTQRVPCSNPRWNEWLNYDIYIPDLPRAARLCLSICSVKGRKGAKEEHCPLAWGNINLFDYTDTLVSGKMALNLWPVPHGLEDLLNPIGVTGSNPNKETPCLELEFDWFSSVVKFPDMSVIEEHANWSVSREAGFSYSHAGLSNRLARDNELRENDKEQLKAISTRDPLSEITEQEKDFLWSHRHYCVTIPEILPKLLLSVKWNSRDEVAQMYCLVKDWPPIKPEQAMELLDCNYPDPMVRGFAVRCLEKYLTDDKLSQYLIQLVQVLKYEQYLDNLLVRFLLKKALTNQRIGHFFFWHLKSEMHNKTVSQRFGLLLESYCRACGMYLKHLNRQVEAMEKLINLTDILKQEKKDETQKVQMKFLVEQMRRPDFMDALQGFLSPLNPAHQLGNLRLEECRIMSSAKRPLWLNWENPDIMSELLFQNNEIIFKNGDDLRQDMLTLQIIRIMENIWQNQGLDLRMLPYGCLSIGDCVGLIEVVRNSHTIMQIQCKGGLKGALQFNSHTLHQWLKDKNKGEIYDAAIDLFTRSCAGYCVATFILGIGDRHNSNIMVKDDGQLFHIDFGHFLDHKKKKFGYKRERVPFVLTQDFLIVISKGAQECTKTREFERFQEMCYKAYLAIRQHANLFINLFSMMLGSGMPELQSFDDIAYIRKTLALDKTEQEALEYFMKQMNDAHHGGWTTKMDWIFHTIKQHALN
Chain of PIK3CD (Human) (O00329 whole entry, looked up): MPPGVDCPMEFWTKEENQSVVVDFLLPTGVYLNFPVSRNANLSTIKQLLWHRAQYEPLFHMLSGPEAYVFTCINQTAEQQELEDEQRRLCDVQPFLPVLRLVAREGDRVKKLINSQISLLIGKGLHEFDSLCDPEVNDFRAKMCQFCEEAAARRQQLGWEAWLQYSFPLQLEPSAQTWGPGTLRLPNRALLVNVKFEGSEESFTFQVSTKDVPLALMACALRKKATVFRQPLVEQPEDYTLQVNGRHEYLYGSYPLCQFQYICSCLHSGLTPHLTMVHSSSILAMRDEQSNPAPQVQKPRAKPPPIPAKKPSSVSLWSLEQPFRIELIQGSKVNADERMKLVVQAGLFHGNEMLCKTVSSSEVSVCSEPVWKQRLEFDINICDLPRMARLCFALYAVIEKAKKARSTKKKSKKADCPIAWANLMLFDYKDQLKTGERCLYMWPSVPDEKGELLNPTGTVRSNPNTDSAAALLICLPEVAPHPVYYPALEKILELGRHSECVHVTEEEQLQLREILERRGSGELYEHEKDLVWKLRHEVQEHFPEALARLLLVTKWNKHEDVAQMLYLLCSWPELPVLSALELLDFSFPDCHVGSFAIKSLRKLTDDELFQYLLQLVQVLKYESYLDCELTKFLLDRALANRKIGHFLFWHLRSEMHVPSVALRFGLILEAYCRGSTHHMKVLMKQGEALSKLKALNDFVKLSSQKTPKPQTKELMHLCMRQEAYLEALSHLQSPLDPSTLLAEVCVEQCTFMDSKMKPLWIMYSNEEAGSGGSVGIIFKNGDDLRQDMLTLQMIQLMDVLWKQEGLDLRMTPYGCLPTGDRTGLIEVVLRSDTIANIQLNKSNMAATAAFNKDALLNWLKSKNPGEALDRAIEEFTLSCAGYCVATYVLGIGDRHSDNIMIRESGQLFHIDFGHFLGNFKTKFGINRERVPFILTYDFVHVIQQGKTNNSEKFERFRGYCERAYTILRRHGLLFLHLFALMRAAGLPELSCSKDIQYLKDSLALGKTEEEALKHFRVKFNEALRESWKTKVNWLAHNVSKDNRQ

SMILES	IC50 (PIK3CA (human)) [µM]	IC50 (PIK3CB (Human))	IC50 (PIK3CD (Human) [1])	IC50 (PIK3CG (human)) [nM]	IC50 (PIK3CD (Human) [2]) [nM]
C=CCn1c([C@H](C)NC(=O)c2c(N)nn3cccnc23)cc2cccc(Cl)c2c1=O	–	< 100 nM	100 to 1000 nM	100 to 1000	< 100
Cc1c([C@H](C)NC(=O)c2c(N)nn3cccnc23)n(-c2ccccc2)c(=O)c2c(F)cccc12	–	100 to 1000 nM	100 to 1000 nM	< 100	< 100
COc1cc(-c2cccc3nc([C@H](C)NC(=O)c4c(N)nn5cccnc45)n(-c4ccccc4)c(=O)c23)ccn1	0.1 to 1	–	100 to 1000 nM	< 100	< 100
C[C@H](NC(=O)c1c(N)nn2cccnc12)c1cc2cccc(Cl)c2c(=O)n1CCN(C)C	≥ 10	< 100 nM	< 100 nM	–	< 100
C[C@H](NC(=O)c1c(N)nn2cccnc12)c1cc2cccc(N(C)C)c2c(=O)n1-c1ccccc1	≥ 10	≥ 10000 nM	≥ 10000 nM	–	–
C[C@H](NC(=O)c1c(N)nn2cccnc12)c1c(C#N)c2cccc(F)c2c(=O)n1-c1ccccc1	–	100 to 1000 nM	100 to 1000 nM	100 to 1000	< 100
C[C@H](NC(=O)c1c(N)nn2cccnc12)c1cc2cccc(Cl)c2c(=O)n1CC(O)CO (stereo not given in full)	–	< 100 nM	100 to 1000 nM	100 to 1000	< 100
CNCCn1c([C@H](C)NC(=O)c2c(N)nn3cccnc23)cc2cccc(Cl)c2c1=O	–	< 100 nM	< 100 nM	–	–
C[C@H](NC(=O)c1c(N)nn2cccnc12)c1c(Br)c2cccc(Cl)c2c(=O)n1-c1ccccc1	–	–	100 to 1000 nM	< 100	< 100
CC[C@H](NC(=O)c1c(N)nn2cccnc12)c1cc2cccc(Cl)c2c(=O)n1-c1ccccc1	–	< 100 nM	< 100 nM	100 to 1000	< 100
C[C@H](NC(=O)c1c(N)nn2cccnc12)c1cc2cccc(Cl)c2c(=O)n1CCNCCO	–	< 100 nM	100 to 1000 nM	–	–
COc1cc(-c2cccc3cc([C@H](C)NC(=O)c4c(N)nn5cccnc45)n(C4CCCCC4)c(=O)c23)ccn1	≥ 10	≥ 10000 nM	≥ 10000 nM	–	–
Cc1cnc(C(=O)N[C@@H](C)c2cc3cccc(C(F)(F)F)c3c(=O)n2-c2ccccc2)c(N)n1	≥ 10	≥ 10000 nM	≥ 10000 nM	–	–
Nc1nn2cccnc2c1C(=O)N1CCC[C@H]1c1cc2cccc(Cl)c2c(=O)n1-c1ccccc1	≥ 10	–	≥ 10000 nM	–	–
C[C@H](NC(=O)c1c(N)nn2cccnc12)c1cc2cccc(Cl)c2c(=O)n1C	–	< 100 nM	100 to 1000 nM	100 to 1000	< 100
C=CC(=O)NCC#Cc1cccc2cc([C@H](C)NC(=O)c3c(N)nn4cccnc34)n(-c3ccccc3)c(=O)c12	–	–	100 to 1000 nM	< 100	< 100
C[C@H](NC(=O)c1c(N)nn2cccnc12)c1cc2cccc(F)c2c(=O)n1-c1ccccc1	≥ 10	≥ 10000 nM and 100 to 1000 nM	≥ 10000 nM and 100 to 1000 nM	–	< 100
COc1cc(-c2cccc3cc(C(C)NC(=O)c4c(N)nn5cccnc45)c(-c4ccccc4)nc23)ccn1 (stereo not given)	≥ 10	≥ 10000 nM	≥ 10000 nM	–	100 to 1000
C[C@H](NC(=O)c1c(N)nn2cccnc12)c1cc2scc(-c3cnn(C)c3)c2c(=O)n1-c1ccccc1	≥ 10	≥ 10000 nM	≥ 10000 nM	–	–
CNc1cccc2cc([C@H](C)NC(=O)c3c(N)nn4cccnc34)n(-c3ccccc3)c(=O)c12	–	≥ 10000 nM	≥ 10000 nM	–	100 to 1000
C[C@H](NC(=O)c1c(N)nn2cccnc12)c1cc2cccc(NCC(F)(F)F)c2c(=O)n1-c1ccccc1	≥ 10	≥ 10000 nM	≥ 10000 nM	–	100 to 1000
COC(=O)c1ncsc1-c1cccc2cc([C@H](C)NC(=O)c3c(N)nn4cccnc34)n(-c3ccccc3)c(=O)c12	≥ 10	≥ 10000 nM	≥ 10000 nM	–	–
C[C@H](NC(=O)c1c(N)nn2cccnc12)c1cc2scc(Cl)c2c(=O)n1-c1ccccc1	–	100 to 1000 nM	100 to 1000 nM	< 100	< 100
C[C@H](NC(=O)c1nccnc1N)c1nc2cccc(Cl)c2c(=O)n1-c1ccccc1	≥ 10	–	< 100 nM	100 to 1000	–
C[C@H](NC(=O)c1c(N)nn2cccnc12)c1cc2cccc(O)c2c(=O)n1-c1ccccc1	≥ 10	–	≥ 10000 nM	–	100 to 1000
C[C@H](NC(=O)c1c(N)nn2cccnc12)c1cc2cccc(Cl)c2c(=O)n1CC(=O)N(C)C	≥ 10	–	≥ 10000 nM	≥ 10000	–
C[C@H](NC(=O)c1c(N)nn2cccnc12)c1nc2cccc(Cl)c2c(=O)n1-c1ccccc1	–	100 to 1000 nM	< 100 nM	< 100	< 100

Results, then the compound that gave them:

IC50 (PIK3CA (human)) [µM]	IC50 (PIK3CB (Human))	IC50 (PIK3CD (Human) [1])	IC50 (PIK3CG (human)) [nM]	IC50 (PIK3CD (Human) [2]) [nM]	SMILES
< 0.1	< 100 nM	< 100 nM	< 100	–	C[C@H](NC(=O)c1nc(-c2cncc(NS(C)(=O)=O)c2)cnc1N)c1cc2cccc(Cl)c2c(=O)n1C1CC1
≥ 10	≥ 10000 nM	< 100 nM	–	< 100	C[C@H](NC(=O)c1nccnc1N)c1cc2cccc(-c3cccnc3)c2c(=O)n1-c1ccccc1
≥ 10	≥ 10000 nM	≥ 10000 nM	–	–	C[C@H](NC(=O)c1nc(-c2ccc(NS(C)(=O)=O)cc2)cnc1N)c1cc2cccc(Cl)c2c(=O)n1-c1ccccc1
≥ 10	≥ 10000 nM	≥ 10000 nM	≥ 10000	–	C[C@H](NC(=O)c1nc(-c2cccc(S(=O)(=O)N3CCOCC3)c2)cnc1N)c1cc2cccc(Cl)c2c(=O)n1-c1ccccc1
–	100 to 1000 nM	100 to 1000 nM	< 100	< 100	C[C@H](NC(=O)c1nc(-c2cccc(NS(=O)(=O)N(C)C)c2)cnc1N)c1cc2cccc(Cl)c2c(=O)n1-c1ccccc1
≥ 10	≥ 10000 nM	≥ 10000 nM	≥ 10000	–	C[C@H](NC(=O)c1c(N)nn2c1NCCC2)c1cc2cccc(Cl)c2c(=O)n1-c1ccccc1
–	100 to 1000 nM	100 to 1000 nM	–	< 100	C[C@H](NC(=O)c1c(N)nn2cccnc12)c1cc2cccc(Cl)c2c(=O)n1-c1ccccc1
–	≥ 10000 nM	100 to 1000 nM	< 100	< 100	COc1cncc(-c2cccc3cc([C@H](C)NC(=O)c4c(N)nn5cccnc45)n(-c4ccccc4)c(=O)c23)c1
–	100 to 1000 nM	< 100 nM	100 to 1000	< 100	C[C@H](NC(=O)c1nccnc1N)c1cc2cccc(Cl)c2c(=O)n1-c1ccccc1
–	≥ 10000 nM	100 to 1000 nM	100 to 1000	< 100	C[C@H](NC(=O)c1c(N)nn2cccnc12)c1cc2cccc(-c3cncc(NS(C)(=O)=O)c3)c2c(=O)n1-c1ccccc1
≥ 10	≥ 10000 nM	≥ 10000 nM	–	–	C[C@H](NC(=O)c1nc(-c2ccc(S(C)(=O)=O)cc2)cnc1N)c1cc2cccc(Cl)c2c(=O)n1-c1ccccc1
–	100 to 1000 nM	100 to 1000 nM	< 100	< 100	C[C@H](NC(=O)c1c(N)nn2cccnc12)c1cc2cccc(Cl)c2c(=O)n1-c1cccc(F)c1
≥ 10	≥ 10000 nM	≥ 10000 nM	–	–	C[C@H](NC(=O)c1nc(-c2cccc(NS(C)(=O)=O)c2)cnc1N)c1cc2cccc(N3CCOCC3)c2c(=O)n1-c1ccccc1
–	–	≥ 10000 nM	100 to 1000	100 to 1000	C[C@H](NC(=O)c1nc(-c2cscn2)cnc1N)c1cc2cccc(Cl)c2c(=O)n1-c1ccccc1
≥ 10	–	≥ 10000 nM	–	–	C[C@H](NC(=O)c1nc(-c2csc(S(C)(=O)=O)n2)cnc1N)c1cc2cccc(Cl)c2c(=O)n1-c1ccccc1
≥ 10	≥ 10000 nM	≥ 10000 nM	–	100 to 1000	C[C@H](NC(=O)c1nc(-c2ccccc2)cnc1N)c1cc2cccc(Cl)c2c(=O)n1-c1ccccc1
≥ 10	≥ 10000 nM	≥ 10000 nM	–	–	C[C@H](NC(=O)c1c(N)nn2cccnc12)c1cc2cccc(N3CCOCC3)c2c(=O)n1-c1ccccc1
≥ 10	≥ 10000 nM	≥ 10000 nM	–	≥ 10000	CC(C)Oc1ccc(-c2cnc(N)c(C(=O)N[C@@H](C)c3cc4cccc(Cl)c4c(=O)n3-c3ccccc3)n2)cc1Cl
–	< 100 nM	100 to 1000 nM	100 to 1000	< 100	Cc1ccn2nc(N)c(C(=O)N[C@@H](C)c3cc4cccc(Cl)c4c(=O)n3-c3ccccc3)c2n1
–	100 to 1000 nM	100 to 1000 nM	100 to 1000	< 100	C[C@H](NC(=O)c1c(N)ncc2cccnc12)c1cc2cccc(Cl)c2c(=O)n1-c1ccccc1
≥ 10	≥ 10000 nM	≥ 10000 nM	–	≥ 10000	CC(C)Oc1ccc(-c2cnc(N)c(C(=O)N[C@@H](C)c3cc4cccc(Cl)c4c(=O)n3-c3ccccc3)n2)cc1
≥ 10	–	≥ 10000 nM	–	100 to 1000	C[C@H](NC(=O)c1nc(-c2cccc(O)c2)cnc1N)c1cc2cccc(Cl)c2c(=O)n1-c1ccccc1
≥ 10	≥ 10000 nM	100 to 1000 nM	–	< 100	C[C@H](NC(=O)c1nccnc1N)c1cc2cccc(-c3cc[nH]n3)c2c(=O)n1-c1ccccc1
–	≥ 10000 nM	100 to 1000 nM	< 100	< 100	COc1cc(-c2cccc3cc([C@H](C)NC(=O)c4c(N)ncc5cccnc45)n(-c4ccccc4)c(=O)c23)ccn1
≥ 10	–	100 to 1000 nM	–	< 100	C[C@H](NC(=O)c1cncc2cccnc12)c1cc2cccc(Cl)c2c(=O)n1-c1ccccc1
–	≥ 10000 nM	100 to 1000 nM	100 to 1000	< 100	C[C@H](NC(=O)c1c(N)nn2cccnc12)c1cc2cccc(-c3cccnc3)c2c(=O)n1-c1ccccc1
